The record followed here is ChEMBL document CHEMBL5727769, “Tricyclic fused derivatives of 1-(cyclo)alkyl pyridin-2-one useful for the treatment of cancer” (2020).

The target of this assay is Bromodomain-containing protein 4 (Homo sapiens, UniProt O60885). Kind of assay: AlphaLISA Assay: Compounds were diluted by step-down dilution method (final concentration of DMSO was 1%) and added to the wells of a 384 well opti plate at desired concentrations. 5 nM BDR4-BD1 enzyme (produced in-house) and 12 nM of biotinylated substrate were added to the wells, covered and incubated at room temperature (RT) for 1 h. At the end of 1 h 250 ng of GSH acceptor beads were added to the well and incubated for 1 h at RT; then 500 ng of streptavidin donor beads were added and incubated again for 1 h at RT. Plates were read in a Pherastar reader at 680 nm excitation and 570 nm emission. (Alpha assays give light when donor and acceptor beads are brought close together.)

The term IC50 denotes the point on the concentration scale where inhibition reaches its midpoint. A lower IC50 goes with higher potency. Turning to `CCNC(=O)CC1N=C(c2ccc(Cl)cc2)c2cc(OC)ccc2-c2cn(C)c(=O)cc21` (racemic), the half-maximal inhibitory concentration (IC50) stood at 1.6 nM.
